The assay relates to CD2F1 mice, L1210 leukemia ip, survival T/C. The assay can be described thus: NCI In Vivo Anticancer Drug Screen. Data for tumor model L1210 Leukemia (intraperitoneal) in CD2F1 (CDF1) mice. The note with it: higher = longer survival. The method in brief:
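Tumor-bearing mice (transplanted tumor) were split into treated and vehicle control groups, and the measured endpoint of each treated group was divided by that of its vehicle controls.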

The mark [1] stands for this setting: endpoint: mean survival time, dose: 100.0 mg/kg/injection, schedule: Q01DX001 (ip), vehicle: saline with Tween-80.
Setting [2] is: endpoint: mean survival time, dose: 100.0 mg/kg/injection, schedule: Q01DX009 (ip), vehicle: saline with Tween-80.
The mark [3] stands for this setting: endpoint: mean survival time, dose: 100.0 mg/kg/injection, schedule: Q04DX003 (ip), vehicle: saline with Tween-80.
The mark [4] stands for this setting: endpoint: mean survival time, dose: 200.0 mg/kg/injection, schedule: Q01DX009 (ip), vehicle: saline with Tween-80.
The mark [5] stands for this setting: endpoint: mean survival time, dose: 200.0 mg/kg/injection, schedule: Q04DX003 (ip), vehicle: saline with Tween-80.
Where [6] appears, read: endpoint: mean survival time, dose: 400.0 mg/kg/injection, schedule: Q01DX001 (ip), vehicle: saline with Tween-80.
The mark [7] stands for this setting: endpoint: mean survival time, dose: 400.0 mg/kg/injection, schedule: Q01DX009 (ip), vehicle: saline with Tween-80.
Setting [8] is: endpoint: mean survival time, dose: 400.0 mg/kg/injection, schedule: Q04DX003 (ip), vehicle: saline with Tween-80.
The mark [9] stands for this setting: endpoint: median survival time, dose: 12.5 mg/kg/injection, schedule: Q01DX005 (ip), vehicle: water.
[10] abbreviates: endpoint: median survival time, dose: 25.0 mg/kg/injection, schedule: Q01DX005 (ip), vehicle: water.
The mark [11] stands for this setting: endpoint: median survival time, dose: 50.0 mg/kg/injection, schedule: Q01DX005 (ip), vehicle: water.
The mark [12] stands for this setting: endpoint: median survival time, dose: 100.0 mg/kg/injection, schedule: Q01DX005 (ip), vehicle: water.
[13] abbreviates: endpoint: median survival time, dose: 200.0 mg/kg/injection, schedule: Q01DX005 (ip), vehicle: water.
The mark [14] stands for this setting: endpoint: mean survival time, dose: 100.0 mg/kg/injection, schedule: Q01DX001 (ip), vehicle: carboxymethylcellulose (CMC).
The mark [15] stands for this setting: endpoint: mean survival time, dose: 200.0 mg/kg/injection, schedule: Q01DX001 (ip), vehicle: carboxymethylcellulose (CMC).
Setting [16] is: endpoint: mean survival time, dose: 400.0 mg/kg/injection, schedule: Q01DX001 (ip), vehicle: carboxymethylcellulose (CMC).

Molecules are shown by their SMILES. Where “and” joins values, the source holds several entries; their conditions need not be identical. Equal entries are not always repeated. Toxic doses and inconclusive results are not listed.

Take `O=C(NC(=S)Nc1cc(Cl)ccc1Cl)c1cccc(Br)c1`: the T/C is 100 % of control (endpoint: mean survival time, dose: 50.0 mg/kg/injection, schedule: Q01DX009 (ip), vehicle: saline with Tween-80); 100 % of control under setting [1]; 101 % of control and 105 % of control and 106 % of control under setting [2]; 89 % of control and 95 % of control (endpoint: mean survival time, dose: 100.0 mg/kg/injection, schedule: Q04DX002 (ip), vehicle: saline with Tween-80); 94 % of control under setting [3]; 97 % of control (endpoint: mean survival time, dose: 200.0 mg/kg/injection, schedule: Q01DX001 (ip), vehicle: saline with Tween-80). Also, the T/C reads like this: under setting [4], 98 % of control and 101 % of control; (endpoint: mean survival time, dose: 200.0 mg/kg/injection, schedule: Q04DX002 (ip), vehicle: saline with Tween-80) 90 % of control and 95 % of control; under setting [5], 90 % of control; under setting [6], 100 % of control; under setting [7], 115 % of control (2×) and 105 % of control; (endpoint: mean survival time, dose: 400.0 mg/kg/injection, schedule: Q04DX002 (ip), vehicle: saline with Tween-80) 92 % of control and 95 % of control. For the same compound, the T/C under setting [8] is 86 % of control.

As for `O=c1nc(NCc2ccco2)ccn1C1OC(CO)C(O)C1O` (stereo not given), the T/C is 98 % of control under setting [9]; 106 % of control under setting [10]; 112 % of control under setting [11]; 112 % of control under setting [12]; 108 % of control under setting [13].

As to `Nc1cn[nH]c(=O)c1`, the T/C is, setting by setting: under setting [14], 102 % of control; under setting [15], 100 % of control; under setting [16], 92 % of control.

For the compound `O=C(c1ccccc1)C1CC2(c3ccccc3)C(=O)C1(c1ccccc1)c1c2c2ccccc2c2ccccc12` (stereo not given), the T/C (endpoint: mean survival time, dose: 50.0 mg/kg/injection, schedule: Q01DX001 (ip), vehicle: saline with Tween-80) is 90 % of control; the T/C under setting [1] was 86 % of control and 94 % of control; the T/C under setting [6] is 89 % of control.

Consider `COC(=O)C1C2CCC(C2)C1C(=O)O` (stereo not given), for which the T/C is 96 % of control (endpoint: mean survival time, dose: 100.0 mg/kg/injection, schedule: Q01DX009 (ip), vehicle: saline); 96 % of control (endpoint: mean survival time, dose: 200.0 mg/kg/injection, schedule: Q01DX009 (ip), vehicle: saline); 94 % of control (endpoint: mean survival time, dose: 400.0 mg/kg/injection, schedule: Q01DX009 (ip), vehicle: saline).

`CC(=O)OC1CCC2(C)C(=CCC3C2CCC2(C)C(C(=O)CC(O)(C(F)(F)F)C(F)(F)F)CCC32)C1` (stereo not given): the T/C (endpoint: mean survival time, dose: 12.5 mg/kg/injection, schedule: Q04DX002 (ip), vehicle: saline with Tween-80) was 98 % of control; the T/C (endpoint: mean survival time, dose: 25.0 mg/kg/injection, schedule: Q04DX002 (ip), vehicle: saline with Tween-80) is 90 % of control; the T/C (endpoint: mean survival time, dose: 50.0 mg/kg/injection, schedule: Q04DX002 (ip), vehicle: saline with Tween-80) was 94 % of control.

Regarding `NC(c1ccccc1)C(N)c1ccccc1` (stereo not given), the T/C (endpoint: mean survival time, dose: 25.0 mg/kg/injection, schedule: Q04DX003 (ip), vehicle: other) is 102 % of control; the T/C (endpoint: mean survival time, dose: 50.0 mg/kg/injection, schedule: Q04DX003 (ip), vehicle: other) was 94 % of control; the T/C (endpoint: mean survival time, dose: 100.0 mg/kg/injection, schedule: Q04DX003 (ip), vehicle: other) was 88 % of control.

For the compound `CS(=O)(=O)OC1CCCCC1c1ccccc1` (stereo not given), the T/C by setting is: under setting [14], 103 % of control; under setting [15], 103 % of control; under setting [16], 101 % of control.

As for `Nc1ncn(C2OC(COC(=O)c3ccccc3)C(OC(=O)c3ccccc3)C2OC(=O)c2ccccc2)c(=O)n1` (stereo not given), the T/C (endpoint: mean survival time, dose: 1.56 mg/kg/injection, schedule: Q01DX009 (ip), vehicle: saline) is 108 % of control; the T/C (endpoint: mean survival time, dose: 6.25 mg/kg/injection, schedule: Q01DX009 (ip), vehicle: saline) was 164 % of control and 170 % of control; the T/C (endpoint: mean survival time, dose: 12.5 mg/kg/injection, schedule: Q01DX009 (ip), vehicle: saline) was 205 % of control and 227 % of control; the T/C (endpoint: mean survival time, dose: 25.0 mg/kg/injection, schedule: Q01DX009 (ip), vehicle: saline) is 115 % of control and 124 % of control; the T/C (endpoint: mean survival time, dose: 50.0 mg/kg/injection, schedule: Q01DX009 (ip), vehicle: saline) is 91 % of control and 93 % of control.

For `OCNC(=S)c1c(Cl)cccc1Cl`, the T/C under setting [2] was 98 % of control and the T/C under setting [4] is 102 % of control.

`NC(=O)N/N=C\c1ccc(O)cn1`: the T/C reads like this: under setting [2], 93 % of control; under setting [4], 93 % of control; under setting [7], 92 % of control.

`CN(C)C(=Nc1ccccc1)N(C)N`: the T/C by setting is: (endpoint: mean survival time, dose: 75.0 mg/kg/injection, schedule: Q01DX001 (ip), vehicle: saline) 97 % of control; (endpoint: mean survival time, dose: 150.0 mg/kg/injection, schedule: Q01DX001 (ip), vehicle: saline) 100 % of control.

For the compound `O=c1nc(N2CCCC2)ccn1C1OC(CO)C(O)C1O` (stereo not given), the T/C is, setting by setting: under setting [9], 100 % of control; under setting [10], 101 % of control; under setting [11], 108 % of control; under setting [12], 101 % of control; under setting [13], 104 % of control.

In the case of `[Cl][Pt+2][Cl].[NH-]CC(O)c1ccc2oc3ccccc3c2c1.[NH-]CC(O)c1ccc2oc3ccccc3c2c1` (stereo not given), the T/C was 104 % of control (endpoint: median survival time, dose: 10.0 mg/kg/injection, schedule: Q04DX003 (ip), vehicle: saline); 108 % of control (endpoint: median survival time, dose: 20.0 mg/kg/injection, schedule: Q04DX003 (ip), vehicle: saline); 104 % of control (endpoint: median survival time, dose: 40.0 mg/kg/injection, schedule: Q04DX003 (ip), vehicle: saline); 109 % of control (endpoint: median survival time, dose: 80.0 mg/kg/injection, schedule: Q04DX003 (ip), vehicle: saline with Tween-80); 108 % of control (endpoint: median survival time, dose: 80.0 mg/kg/injection, schedule: Q04DX003 (ip), vehicle: saline).

`N/C(=N/O)NO`: the T/C runs as follows: (endpoint: median survival time, dose: 50.0 mg/kg/injection, schedule: Q01DX005 (ip), vehicle: saline) 109 % of control; (endpoint: median survival time, dose: 100.0 mg/kg/injection, schedule: Q01DX005 (ip), vehicle: saline) 110 % of control and 112 % of control; (endpoint: median survival time, dose: 200.0 mg/kg/injection, schedule: Q01DX005 (ip), vehicle: saline) 120 % of control and 123 % of control.

In the case of `O=C(Nc1ccc(S(=O)(=O)N2CCCCC2)cc1)Oc1ccc([N+](=O)[O-])cc1`, the T/C runs as follows: (endpoint: mean survival time, dose: 5.0 mg/kg/injection, schedule: Q01DX001 (ip), vehicle: other) 97 % of control; (endpoint: mean survival time, dose: 10.0 mg/kg/injection, schedule: Q01DX001 (ip), vehicle: other) 108 % of control; (endpoint: mean survival time, dose: 20.0 mg/kg/injection, schedule: Q01DX001 (ip), vehicle: other) 100 % of control; (endpoint: mean survival time, dose: 40.0 mg/kg/injection, schedule: Q01DX001 (ip), vehicle: other) 100 % of control; (endpoint: mean survival time, dose: 80.0 mg/kg/injection, schedule: Q01DX001 (ip), vehicle: other) 96 % of control.

Regarding `O=C1c2ccccc2C(=O)c2c(O)c3c(c(O)c21)CCCC3O` (stereo not given), the T/C was 101 % of control (endpoint: mean survival time, dose: 0.05 mg/kg/injection, schedule: Q01DX001 (ip), vehicle: saline); 98 % of control (endpoint: mean survival time, dose: 0.1 mg/kg/injection, schedule: Q01DX001 (ip), vehicle: saline); 101 % of control (endpoint: mean survival time, dose: 0.2 mg/kg/injection, schedule: Q01DX001 (ip), vehicle: saline); 101 % of control (endpoint: mean survival time, dose: 0.4 mg/kg/injection, schedule: Q01DX001 (ip), vehicle: saline); 101 % of control (endpoint: mean survival time, dose: 0.8 mg/kg/injection, schedule: Q01DX001 (ip), vehicle: saline).

Take `NC(=O)N/N=C/C(c1ccccc1)c1ccccc1`: the T/C is 105 % of control under setting [2], 94 % of control under setting [4] and 103 % of control under setting [7].

In the case of `CC1(C)C(=O)CCC2(C)C(OC(=O)c3ccc(C(=O)O)cc3)CCCC12` (stereo not given), the T/C was 96 % of control under setting [3], 93 % of control under setting [5] and 93 % of control under setting [8].

Regarding `c1ccc2c(c1)ncc1cc3c(cc12)[nH]c1ccccc13`, the T/C was 96 % of control (endpoint: mean survival time, dose: 100.0 mg/kg/injection, schedule: Q01DX001 (ip), vehicle: other); 101 % of control (endpoint: mean survival time, dose: 200.0 mg/kg/injection, schedule: Q01DX001 (ip), vehicle: other); 104 % of control (endpoint: mean survival time, dose: 400.0 mg/kg/injection, schedule: Q01DX001 (ip), vehicle: other).

For `N#CCOc1cccc([N+](=O)[O-])c1`, the T/C under setting [3] is 103 % of control and the T/C under setting [5] is 96 % of control.

For the compound `O=C(O)c1cscc1-c1ccccc1`, the T/C by setting is: under setting [3], 104 % of control; under setting [5], 104 % of control; under setting [8], 102 % of control.

The values above are taken from PubChem BioAssay AID256 (DTP/NCI, 2004).
